# Measured values taken from patent publication US11274076B2, “Process for preparing 1, 2-benzenedimethanol compound” (GOWAN COMPANY, L.L.C., priority 2016, dated 2022).
# System: Pythium graminicola
# Experiment: Test 4: control effect against damping-off disease of rice by Pythium (soil irrigation)
# Type: in vivo
# Conditions: 336 h, 1000 ppm test suspension, 2.5 ml soil irrigation, rice (Koshihikari) in contaminated soil, from degree of disease development
row,Compound,pest or weed control at 1000 ppm
1,"COc1ccc(OS(C)(=O)=O)c2c1COC(c1csc(C3CCN(C(=O)Cn4nc(Cl)cc4Cl)CC3)n1)OC2 (stereo not shown) [Compound 2-33, 4-[4-(6-methoxy-9-methylsulfonyloxy-1,5-dihydro-3H-2,4-benzodioxepin-3-yl)-2-thiazolyl]-1-[2-(3,5-dichloro-1H-pyrazol-1-yl)acetyl]piperidine]",≥ 90%
2,"COc1ccc(OS(C)(=O)=O)c2c1COC(c1csc(C3CCN(C(=O)Cn4nc(C)cc4C)CC3)n1)OC2 (stereo not shown) [Compound 2-34, 4-[4-(6-methoxy-9-methylsulfonyloxy-1,5-dihydro-3H-2,4-benzodioxepin-3-yl)-2-thiazolyl]-1-[2-(3,5-dimethyl-1H-pyrazol-1-yl)acetyl]piperidine]",≥ 90%
3,"CS(=O)(=O)Oc1cccc2c1COC(c1csc(C3CCN(C(=O)Cn4nc(C(Cl)Cl)cc4C(Cl)Cl)CC3)n1)OC2 (stereo not shown) [Compound 2-38, 4-[4-(6-methylsulfonyloxy-1,5-dihydro-3H-2,4-benzodioxepin-3-yl)-2-thiazolyl]-1-[2-[3,5-bis(dichloromethyl)-1H-pyrazol-1-yl]acetyl]piperidine]",≥ 90%
4,"CS(=O)(=O)Oc1ccc(Br)c2c1COC(c1csc(C3CCN(C(=O)Cn4nc(C(F)(F)F)cc4C(F)(F)F)CC3)n1)OC2 (stereo not shown) [Compound 2-42, 4-[4-(6-bromo-9-methylsulfonyloxy-1,5-dihydro-3H-2,4-benzodioxepin-3-yl)-2-thiazolyl]-1-[2-[3,5-bis(trifluoromethyl)-1H-pyrazol-1-yl]acetyl]piperidine]",≥ 90%
5,"CS(=O)(=O)Oc1ccc(I)c2c1COC(c1csc(C3CCN(C(=O)Cn4nc(C(F)(F)F)cc4C(F)(F)F)CC3)n1)OC2 (stereo not shown) [Compound 2-46, 4-[4-(6-iodo-9-methylsulfonyloxy-1,5-dihydro-3H-2,4-benzodioxepin-3-yl)-2-thiazolyl]-1-[2-[3,5-bis(trifluoromethyl)-1H-pyrazol-1-yl]acetyl]piperidine]",≥ 90%
6,"CS(=O)(=O)Oc1c(F)ccc2c1COC(c1csc(C3CCN(C(=O)Cn4nc(C(F)(F)F)cc4C(F)(F)F)CC3)n1)OC2 (stereo not shown) [Compound 2-48, 4-[4-(7-fluoro-6-methylsulfonyloxy-1,5-dihydro-3H-2,4-benzodioxepin-3-yl)-2-thiazolyl]-1-[2-[3,5-bis(trifluoromethyl)-1H-pyrazol-1-yl]acetyl]piperidine]",≥ 90%
7,"CS(=O)(=O)Oc1c(F)ccc2c1COC(c1csc(C3CCN(C(=O)Cn4nc(C(F)F)cc4C(F)F)CC3)n1)OC2 (stereo not shown) [Compound 2-49, 4-[4-(7-fluoro-6-methylsulfonyloxy-1,5-dihydro-3H-2,4-benzodioxepin-3-yl)-2-thiazolyl]-1-[2-[3,5-bis(difluoromethyl)-1H-pyrazol-1-yl]acetyl]piperidine]",≥ 90%
8,"CS(=O)(=O)Oc1ccc(OS(C)(=O)=O)c2c1COC(c1csc(C3CCN(C(=O)Cn4nc(C(F)(F)F)cc4C(F)(F)F)CC3)n1)OC2 [Compound 2-54, 4-[4-[6,9-bis(methylsulfonyloxy)-1,5-dihydro-3H-2,4-benzodioxepin-3-yl]-2-thiazolyl]-1-[2-[3,5-bis(trifluoromethyl)-1H-pyrazol-1-yl]acetyl]piperidine]",≥ 90%
9,"CCCCS(=O)(=O)Oc1cccc2c1COC(c1csc(C3CCN(C(=O)Cc4cc(C)ccc4C)CC3)n1)OC2 (stereo not shown) [Compound 3-4, 4-[4-(6-butylsulfonyloxy-1,5-dihydro-3H-2,4-benzodioxepin-3-yl)-2-thiazolyl]-1-[2-(2,5-dimethylphenyl)acetyl]piperidine]",≥ 90%
10,"CS(=O)(=O)Oc1cccc2c1COC(c1csc(C3CCN(C(=O)Cc4cc(C(F)(F)F)ccc4C(F)(F)F)CC3)n1)OC2 (stereo not shown) [Compound 3-8, 4-[4-(6-methylsulfonyloxy-1,5-dihydro-3H-2,4-benzodioxepin-3-yl)-2-thiazolyl]-1-[2-[2,5-bis(trifluoromethyl)phenyl]acetyl]piperidine]",≥ 90%
11,"Cc1ccc(C)c(CC(=O)N2CCC(c3nc(C4OCc5c(OS(C)(=O)=O)cc(C)c(C)c5CO4)cs3)CC2)c1 (stereo not shown) [Compound 3-9, 4-[4-(6,7-dimethyl-9-methylsulfonyloxy-1,5-dihydro-3H-2,4-benzodioxepin-3-yl)-2-thiazolyl]-1-[2-(2,5-dimethylphenyl)acetyl]piperidine]",≥ 90%
12,"CS(=O)(=O)Oc1c(F)ccc2c1COC(c1csc(C3CCN(C(=O)Cc4cc(Cl)ccc4Cl)CC3)n1)OC2 (stereo not shown) [Compound 3-19, 4-[4-(7-fluoro-6-methylsulfonyloxy-1,5-dihydro-3H-2,4-benzodioxepin-3-yl)-2-thiazolyl]-1-[2-(2,5-dichlorophenyl)acetyl]piperidine]",≥ 90%
13,"CS(=O)(=O)Oc1ccc(I)c2c1COC(c1csc(C3CCN(C(=O)Cc4cc(Cl)ccc4Cl)CC3)n1)OC2 (stereo not shown) [Compound 3-20, 4-[4-(6-iodo-9-methylsulfonyloxy-1,5-dihydro-3H-2,4-benzodioxepin-3-yl)-2-thiazolyl]-1-[2-(2,5-dichlorophenyl)acetyl]piperidine]",≥ 90%
